Reference: patent US5795907A, “Gastin and CCK receptor ligands” (James Black Foundation Limited, priority 1994, dated 1998)

Key:
CCKB receptor = biological target: T1, CCKB receptor (Mus musculus, UniProt P56481); test: CCKB receptor radioligand binding assay in mouse cortical membranes ([125I]-CCK8S); settings: [125I]-CCK8S 200 pM, 150 min at 21±3°; for Ki: read-out: CCKB pKi (converted)
T1 construct: The cortex was dissected, weighed and homogenised in 40ml ice-cold buffer; tissue Charles River (supplier of the CD1 mice); host or cells: cerebral cortex membranes of male CD1 mice
T1 sequence (P56481 1-453): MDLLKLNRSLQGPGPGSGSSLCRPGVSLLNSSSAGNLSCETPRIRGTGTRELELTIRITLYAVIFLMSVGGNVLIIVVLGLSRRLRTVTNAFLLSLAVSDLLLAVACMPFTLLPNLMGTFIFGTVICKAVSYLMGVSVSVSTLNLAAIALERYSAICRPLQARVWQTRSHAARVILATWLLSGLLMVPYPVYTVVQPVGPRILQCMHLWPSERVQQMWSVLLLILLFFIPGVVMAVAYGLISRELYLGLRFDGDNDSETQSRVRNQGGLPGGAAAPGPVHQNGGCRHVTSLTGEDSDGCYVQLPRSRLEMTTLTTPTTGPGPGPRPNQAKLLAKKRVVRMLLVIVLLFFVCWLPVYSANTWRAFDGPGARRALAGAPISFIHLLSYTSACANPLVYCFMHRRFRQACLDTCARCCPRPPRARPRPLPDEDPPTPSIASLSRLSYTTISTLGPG
Method: The compounds of the examples were tested for binding at the CCKB receptor in mouse cortical membranes by means of a radioligand binding assay. The procedure was as follows:
The whole brains from male mice (CD1 22-25 g; Charles River) were removed and placed in ice-cold buffer (pH7.2 @ 21±3°) of the following composition (mM); 10 HEPES, 130 NaCl, 4.7 KCl, 5 MgCl2, 1 EDTA and containing 0.25g.^-1 bacitracin. The cortex was dissected, weighed and homogenised in 40ml ice-cold buffer using a Teflon-in-glass homogeniser. The homogenate was centrifuged at 39,800g for 20 min at 4°, the supernatant discarded and the pellet resuspended by homogenisation in fresh buffer. The homogenate was recentrifuged (39,800 g; 20 min @ 4°) and the final pellet was resuspended in HEPES buffer to give a tissue concentration of 2 mg.ml^-1 (original wet weight).
The membranes ([…]) were incubated for 150 min at 21±3° in a final volume of 0.5 ml with HEPES buffer containing [^125 I]-CCK8S (0.05 ml; 200 pM NEN 2200 Ci.mmol^-1) and competing compound. Total and non-specific binding of [^125 I]-CCK8S were defined using 0.05 ml of buffer and 0.05 ml of […] L-365,260, respectively. The assay was terminated by rapid filtration through pre-soaked Whatman GF/B filters using a Brandell Cell harvester. The filters were washed (3×3 ml) with ice-cold 50 mM Tris-HCl (pH7.4 @ 4° C.) and bound radioactivity determined by counting (1 min.) in a gamma-counter.

CCKA = biological target: T2, CCKA (Cavia porcellus, UniProt Q63931); test: CCKA radioligand binding assay in guinea-pig pancreas membranes ([125I]-CCK8(S)); settings: PD134,308 present, 150 minutes at 21±3°; for Ki: read-out: CCKA pKi (converted)
T2 construct: The pancreatata were homogenised in 40 ml ice-cold HEPES buffer using a polytron; from tissue; host or cells: pancreas membranes of male Dunkin Hartley guinea-pigs
T2 sequence (Q63931 1-430): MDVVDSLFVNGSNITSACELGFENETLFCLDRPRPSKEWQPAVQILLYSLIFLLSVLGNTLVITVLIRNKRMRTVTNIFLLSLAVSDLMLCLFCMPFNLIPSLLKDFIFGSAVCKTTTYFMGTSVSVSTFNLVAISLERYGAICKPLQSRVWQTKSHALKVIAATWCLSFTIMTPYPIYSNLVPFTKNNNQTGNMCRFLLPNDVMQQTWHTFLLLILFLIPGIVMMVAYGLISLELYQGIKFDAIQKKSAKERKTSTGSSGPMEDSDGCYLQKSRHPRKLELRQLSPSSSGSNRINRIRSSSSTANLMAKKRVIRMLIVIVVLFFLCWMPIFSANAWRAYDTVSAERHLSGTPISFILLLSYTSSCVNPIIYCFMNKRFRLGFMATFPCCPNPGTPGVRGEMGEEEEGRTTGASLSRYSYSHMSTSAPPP
Method: The compounds of the examples were also tested in a CCKA as follows:
The pancreatata were removed from male guinea-pigs (200-300 g; Dunkin Hartley) and placed in ice-cold HEPES buffer (pH 7.2 @ 21 ±3). The pancreatata were homogenised in 40 ml ice-cold HEPES buffer using a polytron (Brinkmann, PT10, setting 10) 4×1 second. The homogenate was centrifuged at 39,800 g for 15 min at 4°. The supernatant was discarded and the pellet re-suspended using a Teflon-in-glass homogeniser in 20 volumes of fresh buffer and re-centrifuged as above.
The final pellet was re-suspended using a Teflon-in-glass homogeniser to a tissue concentration of 1 mg.ml^-1 (original wet weight), and filtered through 500 μm pore-size Nytex mesh.
The membranes (400 μl; containing 0.375 μM PD134,308) are incubated for 150 minutes at 21±3° in a final volume of 0.5 ml with HEPES buffer containing [^125 I]-CCK8 (S) (50 μl; […]) and competing compound. Total and non-specific binding of [^125 I]-CCK8 (S) are defined using 50 μl of buffer and 50 μl of 100 nM L-364,718 respectively. The assay is terminated by rapid filtration through pre-soaked Whatman GF/B filters using a Brandell Cell Harvester. The filters were washed (3×3 ml) with ice-cold 50 mM Tris HCl (pH 7.4 at 4°) and bound radioactivity is determined by counting (1 min) in a gamma counter.

NS(=O)(=O)c1cc(NC(=O)[C@H](Cc2ccccc2)NC(=O)c2cc3cc[nH]c3cc2C(=O)NCC23CC4CC(CC(C4)C2)C3)cc(S(N)(=O)=O)c1 [Example 96, 5-(1S-(3,5-di-aminosulphonylphenylaminocarbonyl)-2-phenylethylaminocarbonyl)-6-(1-adamantanemethylaminocarbonyl)-indole]
CCKB pKi (CCKB receptor): 6.3 | CCKA pKi (CCKA): 5.7

CCCCc1nc2cc(C(=O)NCC34CC5CC(CC(C5)C3)C4)c(C(=O)N[C@@H](Cc3ccccc3)C(=O)Nc3cc(C(=O)O)cc(C(=O)O)c3)cc2[nH]1 [Example 114, 5-(1S-(3,5-dicarboxyphenylaminocarbonyl)-2-phenylethylaminocarbonyl)-6-(1-adamantanemethylaminocarbonyl)-2-n-butylbenzimidazole]
Ki (CCKB receptor): 1 µM | Ki (CCKA): 3.16 µM

COC(=O)c1cc(NC(=O)[C@H](Cc2ccccc2)NC(=O)c2cc3ccccc3cc2C(=O)NCC23CC4CC(CC(C4)C2)C3)cc(C(=O)OC)c1 [Example 17, 2-(1S-(3,5-dimethoxycarbonyl-phenylamino-carbonyl)-2-phenylethylaminocarbonyl)-3-(1-adamantanemethylaminocarbonyl)-naphthalene]
Ki (CCKA): 15.8 µM

1/2-(1-adamantanemethylaminocarbonyl)-naphthoic acid Regioisomer 2 [Example 22]
CCKB pKi (CCKB receptor): 5.9 | CCKA pKi (CCKA): 5.4

Nc1ccc(C[C@H](NC(=O)c2cc3[nH]cnc3cc2C(=O)NCC23CC4CC(CC(C4)C2)C3)C(=O)Nc2cc(C(=O)O)cc(C(=O)O)c2)cc1 [Example 64, 5-(1S-(3,5-dicarboxyphenylaminocarbonyl)-2-(4-aminophenyl)-ethylaminocarbonyl)-6-(1-adamantanemethylaminocarbonyl)-benzimidazole]
Ki (CCKB receptor): 0.0631 µM

O=C(O)c1cccc2cccc(C(=O)NCC34CC5CC(CC(C5)C3)C4)c12 [Example 20, 1-(1-adamantanemethylaminocarbonyl)-8-naphthoic acid]
Ki (CCKB receptor): 10 µM | Ki (CCKA): 10 µM

O=C(O)c1cc(NC(=O)[C@H](Cc2ccccc2)NC(=O)c2cc3ccn(S(=O)(=O)c4ccccc4)c3cc2C(=O)NCC23CC4CC(CC(C4)C2)C3)cc(C(=O)O)c1 [Example 45, 5-(1S-(3,5-dicarboxyphenylaminocarbonyl)-2-phenylethylaminocarbonyl)-6-(1-adamantanemethylamino-carbonyl)-N-phenylsulphonyl-indole]
CCKB pKi (CCKB receptor): 7.1 | CCKA pKi (CCKA): 6.1

O=C(O)c1cc(NC(=O)[C@@H]2Cc3ccccc3CN2C(=O)c2cc3[nH]cnc3cc2C(=O)NCC23CC4CC(CC(C4)C2)C3)cc(C(=O)O)c1 [Example 129, 5-(3S-(3,5-dicarboxyphenylaminocarbonyl)-1,2,3,4-tetrahydroisoquinolino-2-carbonyl)-6-(1-adamantanemethylaminocarbonyl)-benzimidazole]
Ki (CCKB receptor): 0.2 µM | Ki (CCKA): 7.94 µM

O=C(NCC12CC3CC(CC(C3)C1)C2)c1cc2[nH]ccc2cc1C(=O)N[C@@H](Cc1ccccc1F)C(=O)Nc1cc(-c2nn[nH]n2)cc(-c2nn[nH]n2)c1 [Example 97, 5-(1S-(3,5-ditetrazolylphenylaminocarbonyl)-2-(2-fluorophenyl)ethylaminocarbonyl)-6-(1-adamantanemethylaminocarbonyl)-indole]
Ki (CCKB receptor): 0.000794 µM | Ki (CCKA): 0.501 µM

O=C(O[C@H]1CO[C@@H](c2ccccc2)OC1)c1cc(NC(=O)[C@H](Cc2ccccc2)NC(=O)c2cc3cc[nH]c3cc2C(=O)NCC23CC4CC(CC(C4)C2)C3)cc(C(=O)O[C@H]2CO[C@@H](c3ccccc3)OC2)c1 [Example 106, 5-(1S-(3,5-di-(cis-4-phenyl-3,5-dioxacyclohexaneoxycarbonyl)-phenylaminocarbonyl)-2-phenylethylaminocarbonyl)-6-(1-adamantanemethyl-aminocarbonyl)-indole]
Ki (CCKB receptor): 2 µM

O=C(NCC12CC3CC(CC(C3)C1)C2)c1cc2nc[nH]c2cc1C(=O)N[C@@H](Cc1ccccc1)C(=O)Nc1ccc(F)cc1 [Example 68, 5-(1S-(4-fluorophenylaminocarbonyl)-2-phenylethylaminocarbonyl)-6-(1-adamantanemethylaminocarbonyl)-benzimidazole]
Ki (CCKB receptor): 1.26 µM | Ki (CCKA): 1.26 µM

O=C(O)c1cc(NC(=O)[C@H](Cc2ccccc2)NC(=O)c2cc3cc[nH]c3cc2C(=O)NCC2CCC(O)CC2)cc(C(=O)O)c1 (single isomer, unassigned) [Example 110, 5-(1S-(3,5-dicarboxyphenylaminocarbonyl)-2-phenylethylaminocarbonyl)-6-(4-hydroxycyclohexanemethylaminocarbonyl)-indole]
Ki (CCKB receptor): 0.398 µM

CC(C)(C)C(=O)OCOC(=O)c1cc(NC(=O)[C@H](Cc2ccccc2)NC(=O)c2cc3ccoc3cc2C(=O)NCC23CC4CC(CC(C4)C2)C3)cc(C(=O)OCOC(=O)C(C)(C)C)c1 [Example 121, 5-(1S-(3,5-di-t-butylcarbonyloxymethyloxycarbonylphenylaminocarbonyl)-2-phenylethylaminocarbonyl)-6-(1-adamantanemethylaminocarbonyl)-benzofuran]
CCKA pKi (CCKA): 5.1

CC(=O)NS(=O)(=O)c1cccc(NC(=O)[C@H](Cc2ccccc2)NC(=O)c2cc3cc[nH]c3cc2C(=O)NCC23CC4CC(CC(C4)C2)C3)c1 [Example 138, 5-(1S-(3-acetylaminosulphonylphenylaminocarbonyl)-2-phenylethylaminocarbonyl)-6-(1-adamantanemethylaminocarbonyl)-indole]
CCKB pKi (CCKB receptor): 8.1

5-(1S-(3,5-diaminophenylaminocarbonyl)-2-phenylethylaminocarbonyl)-6-(1-adamantanemethyl-N-methylaminocarbonyl)-indole and regioisomer with substituents at positions 5 and 6 reversed [Example 43]
CCKB pKi (CCKB receptor): 5.8

COC(=O)c1cc(NC(=O)[C@H](Cc2ccccc2)NC(=O)c2cc3ccccc3cc2C(=O)NCC23CC4CC(CC(C4)C2)C3)cc(C(=O)O)c1 [Example 18, 2-(1S-(3-methoxycarbonyl-5-carboxyphenylaminocarbonyl)-2-phenylethylaminocarbonyl)-3-(1-adamantanemethylaminocarbonyl)-naphthalene]
Ki (CCKA): 0.501 µM
